This is an account of results in PubChem BioAssay AID330 (DTP/NCI, 2004).

SMILES strings stand for the structures. Several values for one entry are separate records, joined by “and”; a condition that tells them apart may be missing. Equal entries are not always repeated. Inconclusive results and toxic doses are left out.

The test system of the assay is P388 leukemia ip, CD2F1 mice, survival T/C. Briefly: NCI In Vivo Anticancer Drug Screen. Data for tumor model P388 Leukemia (intraperitoneal) in CD2F1 (CDF1) mice. To be noted: endpoint: median survival time, higher = longer survival. The essentials:
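Mice carrying the transplanted tumor received test compound or vehicle. Survival was recorded in each group, and the value is the treated-group measurement divided by that of the vehicle-treated control group.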

Where [1] appears, read: dose: 50.0 mg/kg/injection, schedule: Q01DX009 (ip), vehicle: saline with Tween-80.
Setting [2] is: dose: 100.0 mg/kg/injection, schedule: Q01DX009 (ip), vehicle: saline with Tween-80.
[3] abbreviates: dose: 50.0 mg/kg/injection, schedule: Q01DX005 (ip), vehicle: saline with Tween-80.
Where [4] appears, read: dose: 100.0 mg/kg/injection, schedule: Q01DX005 (ip), vehicle: saline with Tween-80.
The mark [5] stands for this setting: dose: 200.0 mg/kg/injection, schedule: Q01DX005 (ip), vehicle: saline with Tween-80.
[6] abbreviates: dose: 25.0 mg/kg/injection, schedule: Q01DX009 (ip), vehicle: saline with Tween-80.

As to `CC12Oc3ccc(Cl)cc3C1(C)c1cc(Cl)ccc1O2` (configuration not stated), the T/C is, setting by setting: (dose: 50.0 mg/kg/injection, schedule: Q01DX009 (ip), vehicle: acetone) 104 % of control; (dose: 100.0 mg/kg/injection, schedule: Q01DX009 (ip), vehicle: acetone) 102 % of control; (dose: 200.0 mg/kg/injection, schedule: Q01DX009 (ip), vehicle: acetone) 102 % of control.

As for `COc1ccc(/C=C2\N=C(c3ccccc3)OC2=O)c(OCc2ccccc2)c1`, the T/C by setting is: (dose: 12.5 mg/kg/injection, schedule: Q01DX009 (ip), vehicle: other) 88 % of control; (dose: 25.0 mg/kg/injection, schedule: Q01DX009 (ip), vehicle: other) 89 % of control; (dose: 100.0 mg/kg/injection, schedule: Q01DX009 (ip), vehicle: other) 88 % of control; (dose: 200.0 mg/kg/injection, schedule: Q01DX009 (ip), vehicle: other) 94 % of control.

On to `COc1cccc2c1C(=O)c1c(O)c3c(c(O)c1C2=O)C[C@@](O)(/C(C)=N\NC=O)C[C@@H]3OC1CC(N)C(O)C(C)O1` (some centres not stated), for which the T/C is, setting by setting: (dose: 0.65 mg/kg/injection, schedule: Q01DX009 (ip), vehicle: saline) 150 % of control; (dose: 1.08 mg/kg/injection, schedule: Q01DX009 (ip), vehicle: saline) 150 % of control; (dose: 1.8 mg/kg/injection, schedule: Q01DX009 (ip), vehicle: saline) 159 % of control; (dose: 3.0 mg/kg/injection, schedule: Q01DX009 (ip), vehicle: saline) 163 % of control; (dose: 3.0 mg/kg/injection, schedule: Q04DX003 (ip), vehicle: saline) 150 % of control; (dose: 5.0 mg/kg/injection, schedule: Q01DX009 (ip), vehicle: saline) 163 % of control. The T/C reads like this: (dose: 5.0 mg/kg/injection, schedule: Q04DX003 (ip), vehicle: saline) 154 % of control; (dose: 8.0 mg/kg/injection, schedule: Q01DX001 (ip), vehicle: saline) 154 % of control; (dose: 8.0 mg/kg/injection, schedule: Q01DX009 (ip), vehicle: saline) 177 % of control; (dose: 8.0 mg/kg/injection, schedule: Q04DX003 (ip), vehicle: saline) 172 % of control; (dose: 13.3 mg/kg/injection, schedule: Q01DX001 (ip), vehicle: saline) 154 % of control; (dose: 22.2 mg/kg/injection, schedule: Q01DX001 (ip), vehicle: saline) 172 % of control. The T/C runs as follows: (dose: 22.2 mg/kg/injection, schedule: Q04DX003 (ip), vehicle: saline) 190 % of control; (dose: 37.0 mg/kg/injection, schedule: Q01DX001 (ip), vehicle: saline) 181 % of control.

Turning to `NC1(c2ccccc2)CON=C(c2ccccc2)C1` (configuration not stated), the T/C was 109 % of control (dose: 6.25 mg/kg/injection, schedule: Q04DX003 (ip), vehicle: saline); 104 % of control (dose: 12.5 mg/kg/injection, schedule: Q04DX003 (ip), vehicle: saline); 102 % of control (dose: 25.0 mg/kg/injection, schedule: Q04DX003 (ip), vehicle: saline); 100 % of control (dose: 100.0 mg/kg/injection, schedule: Q04DX003 (ip), vehicle: saline).

Take `CCCCOC(=O)c1ccc(NC(=O)Nc2ccccc2OC)cc1`: the T/C is, setting by setting: (dose: 25.0 mg/kg/injection, schedule: Q04DX003 (ip), vehicle: saline with Tween-80) 91 % of control; (dose: 50.0 mg/kg/injection, schedule: Q04DX003 (ip), vehicle: saline with Tween-80) 87 % of control.

With `COC(=O)c1cc2c(s1)C(=O)c1ccccc1-2`, the T/C is 91 % of control under setting [1]; 103 % of control under setting [2]; 100 % of control (dose: 200.0 mg/kg/injection, schedule: Q01DX009 (ip), vehicle: saline with Tween-80).

As to `OCCNC(=S)Nc1ccccc1`, the T/C is, setting by setting: (dose: 7.5 mg/kg/injection, schedule: Q01DX009 (ip), vehicle: saline with Tween-80) 104 % of control; (dose: 15.0 mg/kg/injection, schedule: Q01DX009 (ip), vehicle: saline with Tween-80) 100 % of control.

`CCCNCCNc1ccc(NCCNCCC)c2c1C(=O)c1ccccc1C2=O`: the T/C is 104 % of control (dose: 4.0 mg/kg/injection, schedule: Q01DX009 (ip), vehicle: acid diluted with saline); 112 % of control (dose: 8.0 mg/kg/injection, schedule: Q01DX009 (ip), vehicle: acid diluted with saline); 120 % of control (dose: 12.5 mg/kg/injection, schedule: Q01DX009 (ip), vehicle: distilled water + Tween-80); 120 % of control (dose: 16.0 mg/kg/injection, schedule: Q01DX009 (ip), vehicle: acid diluted with saline); 118 % of control (dose: 25.0 mg/kg/injection, schedule: Q01DX009 (ip), vehicle: distilled water + Tween-80); 112 % of control (dose: 32.0 mg/kg/injection, schedule: Q01DX009 (ip), vehicle: acid diluted with saline). Further, under “dose: 100.0 mg/kg/injection, schedule: Q01DX009 (ip), vehicle: distilled water + Tween-80”, the T/C is 124 % of control.

As for `CCOc1cccc2c1CCC(O[Si](C)(C)C(C)(C)C)C2` (configuration not stated), the T/C reads like this: under setting [3], 94 % of control; under setting [4], 95 % of control; under setting [5], 96 % of control.

In the case of `Cn1c(C(=O)NN)cc2cc(OCc3ccccc3)ccc21`, the T/C is 97 % of control (dose: 50.0 mg/kg/injection, schedule: Q01DX005 (ip), vehicle: Klucel (hydroxypropylcellulose) (HPC)); 100 % of control (dose: 100.0 mg/kg/injection, schedule: Q01DX005 (ip), vehicle: Klucel (hydroxypropylcellulose) (HPC)); 98 % of control (dose: 200.0 mg/kg/injection, schedule: Q01DX005 (ip), vehicle: Klucel (hydroxypropylcellulose) (HPC)).

With `COc1c2occc2c(S(N)(=O)=O)c2ccc(=O)oc12`, the T/C is 106 % of control under setting [6], 103 % of control under setting [1] and 106 % of control under setting [2].

For `O=C(O)C1Cc2nc[nH]c2CN1CO` (configuration not stated), the T/C is 100 % of control under setting [6]; 109 % of control and 114 % of control under setting [1]; 119 % of control and 120 % of control under setting [2].

For the molecule `COc1cc(C2C(C#N)=CNc3nc(N)nc(N)c32)cc(OC)c1OC` (configuration not stated), the T/C (dose: 60.0 mg/kg/injection, schedule: Q01DX005 (ip), vehicle: saline with Tween-80) was 120 % of control.

Consider `CC(C)CC(CC(C)C)[N+](=O)[O-]`, for which the T/C by setting is: under setting [3], 111 % of control; under setting [4], 105 % of control; under setting [5], 107 % of control.

Take `COC12CC(=O)C(C(C)=O)=C(O)C1(C)c1c(OC(C)=O)c(C)c(O)c(C(C)=O)c1O2` (configuration not stated): the T/C is 106 % of control (dose: 25.0 mg/kg/injection, schedule: Q01DX009 (ip), vehicle: gum acacia); 99 % of control and 104 % of control and 114 % of control (dose: 50.0 mg/kg/injection, schedule: Q01DX009 (ip), vehicle: gum acacia); 124 % of control (dose: 100.0 mg/kg/injection, schedule: Q01DX009 (ip), vehicle: gum acacia).

Take `Cn1c2c(c3cc(I)ccc31)CCc1cncnc1-2`: the T/C was 102 % of control (dose: 37.5 mg/kg/injection, schedule: Q01DX001 (ip), vehicle: Klucel (hydroxypropylcellulose) (HPC)); 91 % of control (dose: 75.0 mg/kg/injection, schedule: Q01DX001 (ip), vehicle: Klucel (hydroxypropylcellulose) (HPC)); 91 % of control (dose: 150.0 mg/kg/injection, schedule: Q01DX001 (ip), vehicle: Klucel (hydroxypropylcellulose) (HPC)).

Regarding `Cc1cc(C(=O)O)c(C)c(S(=O)(=O)O)c1`, the T/C by setting is: (dose: 12.5 mg/kg/injection, schedule: Q01DX009 (ip), vehicle: water) 102 % of control; (dose: 25.0 mg/kg/injection, schedule: Q01DX009 (ip), vehicle: water) 97 % of control; (dose: 50.0 mg/kg/injection, schedule: Q01DX009 (ip), vehicle: water) 92 % of control; (dose: 100.0 mg/kg/injection, schedule: Q01DX009 (ip), vehicle: water) 102 % of control; (dose: 200.0 mg/kg/injection, schedule: Q01DX009 (ip), vehicle: water) 99 % of control.

Regarding `CC12CC3CC(C1)CC(Br)(C3)C2`, the T/C was 103 % of control and 111 % of control (dose: 50.0 mg/kg/injection, schedule: Q01DX009 (ip), vehicle: Klucel (hydroxypropylcellulose) (HPC)); 100 % of control (dose: 100.0 mg/kg/injection, schedule: Q01DX009 (ip), vehicle: Klucel (hydroxypropylcellulose) (HPC)); 100 % of control (dose: 200.0 mg/kg/injection, schedule: Q01DX009 (ip), vehicle: Klucel (hydroxypropylcellulose) (HPC)).

With `Cc1ccc2c(c1)c(N=NC(N)=S)c(O)n2C1OC(CO)C(O)C(O)C1O` (configuration not stated), the T/C is 102 % of control (dose: 32.0 mg/kg/injection, schedule: Q01DX009 (ip), vehicle: saline with Tween-80); 95 % of control (dose: 64.0 mg/kg/injection, schedule: Q01DX009 (ip), vehicle: saline with Tween-80); 98 % of control (dose: 128.0 mg/kg/injection, schedule: Q01DX009 (ip), vehicle: saline with Tween-80).
